Test results from ChEMBL document CHEMBL1201862, “PubChem BioAssay data set” (2004).
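Grown in 96-well plates, cells were treated for 48 hours with each compound at five concentrations. Insufficient inhibition: endpoint recorded as highest concentration tested. GI50 is the concentration that inhibits growth by half.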 The source made the active and inactive calls. Rule as the data show it: active = GI50 up to about 1.1 µM and inactive = higher.

How the values were obtained:
Test in all cases: growth of human tumour cells (NCI), 48 h
[1] = tested on: M14
[2] = tested on: UACC-257
[3] = tested on: SR
[4] = tested on: HT-29
[5] = tested on: OVCAR-5
[6] = tested on: MDA-MB-231
[7] = tested on: EKVX
[8] = tested on: COLO 205
[9] = tested on: CCRF-CEM
[10] = tested on: UACC-62
[11] = tested on: 786-0
[12] = tested on: Malme-3M
[13] = tested on: HL-60
[14] = tested on: LOX IMVI
[15] = tested on: K562
[16] = tested on: MDA-MB-435
[17] = tested on: IGROV-1
[18] = tested on: HCT-15
[19] = tested on: NCI-H522
[20] = tested on: Hs-578T
[21] = tested on: KM12
[22] = tested on: SF-295
[23] = tested on: NCI-H23
[24] = tested on: SNB-75
[25] = tested on: OVCAR-3
[26] = tested on: TK-10
[27] = tested on: MCF7
[28] = tested on: HOP-92
[29] = tested on: NCI/ADR-RES
[30] = tested on: PC-3
[31] = tested on: SK-MEL-2
[32] = tested on: SF-539
[33] = tested on: HCT-116
[34] = tested on: DU-145
[35] = tested on: A549
[36] = tested on: SK-OV-3
[37] = tested on: T47D
[38] = tested on: SK-MEL-28
[39] = tested on: MOLT-4
[40] = tested on: NCI-H460
[41] = tested on: BT-549
[42] = tested on: U-251
[43] = tested on: SF-268
[44] = tested on: OVCAR-8
[45] = tested on: ACHN
[46] = tested on: CAKI-1
[47] = tested on: A498
[48] = tested on: OVCAR-4
[49] = tested on: SN12C
[50] = tested on: SNB-19
[51] = tested on: SK-MEL-5
[52] = tested on: HOP-62
[53] = tested on: MDA-N
[54] = tested on: RPMI-8226
[55] = tested on: NCI-H226
[56] = tested on: SW-620
[57] = tested on: RXF 393
[58] = tested on: UO-31
[59] = tested on: HCC 2998

N=C(CCl)NC1CN2CCC1CC2 (centres undefined)
GI50 [1]: > 100 µM (inactive)
GI50 [2]: > 100 µM (inactive)
GI50 [3]: 32.7 µM (inactive)
GI50 [4]: 48.3 µM (inactive)
GI50 [5]: 75 µM (inactive)
GI50 [6]: > 100 µM (inactive)
GI50 [7]: 67.5 µM (inactive)
GI50 [8]: 27.4 µM (inactive)
GI50 [9]: 18.6 µM (inactive)
GI50 [10]: > 100 µM (inactive)
GI50 [11]: 97.5 µM (inactive)
GI50 [12]: > 100 µM (inactive)
GI50 [13]: 18.4 µM (inactive)
GI50 [14]: 34.1 µM (inactive)
GI50 [15]: > 100 µM (inactive)
GI50 [16]: > 100 µM (inactive)
GI50 [17]: > 100 µM (inactive)
GI50 [18]: > 100 µM
GI50 [19]: 19.4 µM (inactive)
GI50 [20]: > 100 µM (inactive)
GI50 [21]: > 100 µM (inactive)
GI50 [22]: > 100 µM (inactive)
GI50 [23]: > 100 µM (inactive)
GI50 [24]: > 100 µM (inactive)
GI50 [25]: > 100 µM (inactive)
GI50 [26]: > 100 µM (inactive)
GI50 [27]: 42.3 µM (inactive)
GI50 [28]: > 100 µM (inactive)
GI50 [29]: > 100 µM (inactive)
GI50 [30]: > 100 µM (inactive)
GI50 [31]: > 100 µM (inactive)
GI50 [32]: 60.5 µM (inactive)
GI50 [33]: > 100 µM (inactive)
GI50 [34]: > 100 µM (inactive)
GI50 [35]: > 100 µM (inactive)
GI50 [36]: > 100 µM (inactive)
GI50 [37]: 56.1 µM (inactive)
GI50 [38]: > 100 µM (inactive)
GI50 [39]: 39.7 µM (inactive)
GI50 [40]: > 100 µM (inactive)
GI50 [41]: > 100 µM (inactive)
GI50 [42]: 49.1 µM (inactive)
GI50 [43]: 92.9 µM (inactive)
GI50 [44]: > 100 µM (inactive)
GI50 [45]: 87.7 µM (inactive)
GI50 [46]: 50.9 µM (inactive)
GI50 [47]: > 100 µM (inactive)
GI50 [48]: 59 µM (inactive)
GI50 [49]: 66.7 µM (inactive)
GI50 [50]: > 100 µM (inactive)
GI50 [51]: > 100 µM (inactive)
GI50 [52]: > 100 µM (inactive)
GI50 [53]: > 100 µM (inactive)
GI50 [54]: > 100 µM (inactive)
GI50 [55]: > 100 µM (inactive)
GI50 [56]: 68.7 µM (inactive)
GI50 [57]: > 100 µM (inactive)

CN(/N=C/c1ccc(Cl)cc1)C1=NCCCCN1
GI50 [1]: 24.6 µM (inactive)
GI50 [2]: > 100 µM (inactive)
GI50 [3]: > 100 µM (inactive)
GI50 [58]: > 100 µM (inactive)
GI50 [4]: 66.2 µM (inactive)
GI50 [5]: > 100 µM (inactive)
GI50 [6]: 35 µM (inactive)
GI50 [7]: > 100 µM (inactive)
GI50 [8]: 35.1 µM (inactive)
GI50 [9]: 38.1 µM (inactive)
GI50 [10]: 67.1 µM (inactive)
GI50 [11]: 99.8 µM (inactive)
GI50 [12]: 62.8 µM (inactive)
GI50 [13]: 30.3 µM (inactive)
GI50 [14]: 22.1 µM (inactive)
GI50 [15]: 18.9 µM (inactive)
GI50 [16]: 72.1 µM (inactive)
GI50 [17]: > 100 µM (inactive)
GI50 [18]: > 100 µM
GI50 [19]: 39.4 µM (inactive)
GI50 [20]: > 100 µM (inactive)
GI50 [21]: 50.5 µM (inactive)
GI50 [22]: > 100 µM (inactive)
GI50 [23]: > 100 µM (inactive)
GI50 [24]: 68.7 µM (inactive)
GI50 [25]: > 100 µM (inactive)
GI50 [26]: > 100 µM (inactive)
GI50 [27]: > 100 µM (inactive)
GI50 [28]: 47.3 µM (inactive)
GI50 [29]: > 100 µM (inactive)
GI50 [30]: 32.9 µM (inactive)
GI50 [31]: > 10 µM (inactive)
GI50 [32]: > 100 µM (inactive)
GI50 [33]: 48.1 µM (inactive)
GI50 [34]: > 100 µM (inactive)
GI50 [35]: 93.8 µM (inactive)
GI50 [36]: > 100 µM (inactive)
GI50 [37]: > 100 µM (inactive)
GI50 [39]: 26.7 µM (inactive)
GI50 [40]: > 100 µM (inactive)
GI50 [41]: > 100 µM (inactive)
GI50 [42]: > 100 µM (inactive)
GI50 [43]: > 100 µM (inactive)
GI50 [44]: > 100 µM (inactive)
GI50 [45]: > 100 µM (inactive)
GI50 [46]: > 100 µM (inactive)
GI50 [47]: 56.9 µM (inactive)
GI50 [48]: > 100 µM (inactive)
GI50 [49]: 81.5 µM (inactive)
GI50 [50]: > 100 µM (inactive)
GI50 [51]: 53.2 µM (inactive)
GI50 [52]: > 100 µM (inactive)
GI50 [53]: > 100 µM (inactive)
GI50 [54]: > 100 µM (inactive)
GI50 [55]: > 100 µM (inactive)
GI50 [59]: 44.6 µM (inactive)
GI50 [56]: > 100 µM (inactive)
